# Source: US20230321106A1, “USE OF TOPICAL BRAF INHIBITOR COMPOSITIONS FOR TREATMENT OF EPIDERMAL GROWTH FACTOR RECEPTOR DOWNSTREAM EFFECTORS - INDUCED CUTANEOUS REACTIONS” (Lutris Pharma Ltd., priority 2020, published 2023)
# Entries after “also recorded” stand apart in the source; their conditions may differ.
# Experiments:
# [1] = system: anti-EGFR therapy-induced acneiform lesions; assay: Phase 1 clinical trial: efficacy on acneiform lesions (CTCAE, MASCC, FACT-EGFRI-13); assay type: in vivo, human
# Method: Three scales were used to evaluate the severity of acneiform lesions during the clinical trial period. The primary readout was based on the National Cancer Institute (NCI) Common Terminology Criteria for Adverse Events (CTCAE) version 5.0 for grading acneiform rash. The clinical trial eligibility criteria were based on having an acneiform skin rash of grade 1 or 2 while on anti-EGFR therapy, and therefore the grading change from baseline with the topical application of LUT014 was measured. The Multinational Association of Supportive Care in Cancer (MASCC) Study Group EGFR Inhibitor-dermatologic adverse event grading scale is a central reviewer-assessment based on the review of pictures provided to one remote reviewer (Wong, et al., Support Care Cancer 21, 2933-2948, 2013). The Functional Assessment of Cancer Therapy (FACT) is a health-related quality of life questionnaire to assess symptoms associated with EGFR inhibitors (Wagner, et al., Support Care Cancer 21, 1033-1041, 2013). The score based on the 13 skin-specific questions (FACT-EGFRI-13) was reported, and was calculated by the change in total score relative to baseline, with a decrease in value representing worsening and an increase value representing improvement of skin-related symptoms.
# Evaluation of the preliminary efficacy of LUT014 gel for the treatment of anti-EGFR therapy-induced acneiform lesions was based on the following: A) Acneiform lesions grading performed locally by the Investigator using the NCI CTCAE version 5.0 skin and subcutaneous tissue disorders grading scale. B) Acneiform lesions grading performed by a central reader, using the MASCC Study Group EGFR Inhibitor-dermatologic adverse event grading scale (Wong, et al., 2013). Grading was based on masked photographs of patients' face, neck, and upper portion of the anterior and posterior chest. C) Patient self-reported quality of life FACT-EGFRI-13 questionnaire (Wagner et al, 2013), assessing the physical and psychological effects of the dermatological symptoms associated with anti-EGFR treatment on study patients. Only the first 13 questions of the FACT-EGFRI that are relevant for the skin were evaluated. Data from all patients who received at least one dose of study drug were included in the safety and efficacy analyses.
# MIA-PaCa-2 cells = assay: MIA-PaCa-2 cellular proliferation (ATP-lite, 72 hours); assay type: cell-based, human
# Method: MIA-PaCa-2 cells (ATCC catalog number CRM-CRL-1420, Manassas, VA) were cultured at 37° C. in T75 flasks in growth medium DMEM (ATCC) supplemented with 10% FBS and 2.5% horse serum. After 4 days, when the flasks reached 50% confluence, cells were harvested with trypsin and seeded in 96 well plates at a concentration of 5000 cells/well, in a total volume of 0.1 ml/well starvation medium and incubated 24 hours at 37° C., 5% CO2. The next morning, medium was replaced with 180 μl growth medium (containing 10% FBS and 2.5% horse serum) and 20 μl of each concentration of LUT014, DMSO or PBS. Each concentration of each compound was added to triplicate wells. The plates were incubated for 72 hours at 37° C., 5% CO2. Cellular proliferation was measured using the ATP-lite proliferation assay (Perkin Elmer, Waltham, MA) following the manufacturer's instructions, with the luminescence measured using a CLARIOstar reader (BMG Labtech, Ortenberg, Germany), and analyzed with the ATPlite TOP program (Perkin Elmer).
# [2] = system: phosphorylated ERK1/2 (MAPK pathway) in primary adult human epidermal keratinocytes (HEKa); assay: pERK induction in HEKa cells, Western blot (phosphorylated ERK1/2 / total ERK2); assay type: cell-based; conditions: 0.3 μM, two hours
# Method: Primary HEKa, isolated from adult skin of a single donor and cryopreserved at the end of primary culture (Gibco catalog number C0055C, Thermo Fisher Scientific, Waltham, MA), were cultured in T25 flasks at 37° C., 5% CO2 in growth medium (Epilife™ CF Kit, Gibco) supplemented with 60 μM calcium (Gibco) and HKGS (Gibco). After at least three passages, cells were harvested with trypsin when flask reached 70-80% confluence, and seeded in 10 cm culture dishes (250,000 cells/dish) in 9 ml of growth medium overnight. To analyze the effect of HKGS or a BRAF inhibitor on pERK, cells were starved for 2.5 hours in 5 mL of starvation medium without HKGS, and then individual plates were incubated for two hours with DMSO 0.1%, HKGS, vemurafenib 0.3 μM (0.146 μg/mL), or LUT014 0.3 μM (0.158 μg/mL). To analyze the effects of LUT014 to re-activate pERK in HKGS-activated HEKa cells cultured in an EGFR inhibitor, cells were seeded in 60 mm dishes (120,000 cells/dish) in 4 ml growth medium. […] The signals of phosphorylated ERK1/2 and total ERK2 were quantified using ImageJ software and the phosphorylated ERK1/2/total ERK2 ratio was calculated. For the quantification, equal sized rectangles were drawn around the bands of the phosphorylated ERK1/2 and the total ERK2 and the pixels in each rectangle were measured.
# [3] = system: phosphorylated ERK1/2 (MAPK pathway) in HKGS-activated HEKa cells; assay: Reversal of EGFR inhibitor-mediated pERK inhibition in HKGS-activated HEKa cells, Western blot; assay type: cell-based, human; conditions: two hours
# Method: Primary HEKa, isolated from adult skin of a single donor and cryopreserved at the end of primary culture (Gibco catalog number C0055C, Thermo Fisher Scientific, Waltham, MA), were cultured in T25 flasks at 37° C., 5% CO2 in growth medium (Epilife™ CF Kit, Gibco) supplemented with 60 μM calcium (Gibco) and HKGS (Gibco). After at least three passages, cells were harvested with trypsin when flask reached 70-80% confluence, and seeded in 10 cm culture dishes (250,000 cells/dish) in 9 ml of growth medium overnight. To analyze the effect of HKGS or a BRAF inhibitor on pERK, cells were starved for 2.5 hours in 5 mL of starvation medium without HKGS, and then individual plates were incubated for two hours with DMSO 0.1%, HKGS, vemurafenib 0.3 μM (0.146 μg/mL), or LUT014 0.3 μM (0.158 μg/mL). […] Cells were harvested with 1 ml cold PBS containing EDTA-free, phosphatase inhibitor cocktail (MilliporeSigma, Burlington, MA) using a cell scraper. […] The signals of phosphorylated ERK1/2 and total ERK2 were quantified using ImageJ software and the phosphorylated ERK1/2/total ERK2 ratio was calculated. For the quantification, equal sized rectangles were drawn around the bands of the phosphorylated ERK1/2 and the total ERK2 and the pixels in each rectangle were measured.
# [4] = Phase 1 clinical trial: plasma pharmacokinetics (LC-MS/MS); assay type: in vivo, human; conditions: patients, topical gel; for systemic absorption / exposure after topical administration: plasma
# Method: Blood samples for PK analysis were taken from the initial three patients enrolled to each dosing cohort (total 9 patients). PK samples were collected pre-dose on day 0 and day 7 and at 1, 2, 4, 8 and 24 hours post-dose. A qualified liquid chromatography tandem mass spectroscopy LC-MS/MS analytical assay with an LLOQ of 10 pg/ml was used to determine concentrations of LUT014 in plasma. Plasma concentrations below the limit of quantitation (<10 pg/mL) were treated as zero for the calculations of mean (SD).
# Tabular summaries of the secondary safety assessments included descriptive statistics (i.e., mean, standard deviation, median, and range for continuous data and frequency for categorical data) for each visit assessed, as well as for the calculated changes from baseline. For the pharmacokinetics analyses, plasma LUT014 concentration-time profiles were analyzed by non-compartmental methods and PK parameters were calculated by standard equations, when plasma levels are achieved. PK analyses produced using Phoenix® WinNonLin (Certara, Princeton, NJ). The efficacy assessments NCI CTCAE skin and subcutaneous tissue disorders grading scale, MASCC Study Group EGFR Inhibitor-dermatologic adverse event grading scale, FACT-EGFRI-13 questionnaire, were summarized by treatment group using descriptive statistics as appropriate (i.e., mean, standard deviation, median, and range for continuous data and frequency for categorical data). All analyses were performed using SAS® Software (version 9.2, SAS Institute, Cary, NC).
# [5] = Phase 1 clinical trial of topical LUT014 gel: safety and tolerability; assay type: in vivo, human
# Excerpt: This was an open-label, dose escalation study of LUT014 gel topically administered for four weeks. A 2-week screening period (day −14 to day −1) was followed by a 4-week treatment period (day 0 to day 27). Patients applied the study drug once daily to their face, neck, chest, and upper back. The post-treatment safety follow-up period ran from day 28 to day 55. Additionally, two long term safety follow up visits were done 3 and 6 months after completion of treatment, including a dermatological exam to detect any potential BRAF inhibitor skin toxicities within the treatment area.
# Three dose levels of LUT014 gel were tested: 0.3 mg/g, 1.0 mg/g and 2.5 mg/g. The dose of LUT014 was escalated in sequential dose cohorts of 3 to 6 patients, in a conventional 3+3 escalating dose design. Escalation to the next dose level was permitted if no DLT was reported by the three patients in the cohort within 4 weeks of receiving the first dose of LUT014. If one out of three patients developed a dose limiting toxicity (DLT), additional three patients were planned to be treated with study drug at the same dose level. At any given dose level, if more than one out of the three or six patients experienced a DLT within 4 weeks of receiving the first dose of LUT014, the dose level was determined to have exceeded the MTD, and the MTD was set to be the next lower dose.
# A DLT was defined as any treatment-emergent grade 2 or higher clinically significant adverse event, with the exception of a transient grade 2 adverse event (i.e., one that returns to grade 1 or baseline within 7 days) or grade 2 adverse event that was manageable with standard of care (i.e., one that returns to grade 1 or baseline within 14 days), that occurred within 4 weeks of the first dose of study drug for which there was a reasonable possibility that LUT014 had caused the event. Upon completion of the 4-week treatment period of the third patient in each dosing cohort, a Safety Review Committee (SRC) meeting was set to review the safety data and to provide recommendation/decision on dose escalation/de-escalation, or expansion of dosing cohort.
# Safety and tolerability were assessed primarily based on the adverse events from day 0 to day 55. In addition to the adverse events assessment, the safety measurements included physical examination, vital signs and body weight, 12-lead ECG, ECOG performance status, safety labs including complete blood count, comprehensive metabolic panel and urinalysis. At 3 and 6 months […] a dermatologist performed a skin assessment of the areas of the skin where LUT014 gel was applied to screen for potential cutaneous toxicities known to be associated with approved BRAF inhibitors, including erythema nodosum-type rash, photosensitivity, squamous papillomas or warts, keratoacanthomas, cutaneous squamous cell carcinoma, dry skin, and folliculitis or cysts (Welsh, et al., Therapeutic advances in medical oncology 7, 122-136, 2015).
# [6] = topical gel 0.3, 1.0, 2.5 mg/g once daily, 4 weeks, 10 patients
smiles,measurement,setting,value
Cc1ccc2c(Nc3cccc(OC(F)(F)F)c3)nccc2c1Nc1ncccc1-c1ncnc2[nH]cnc12 [LUT014],time to CTCAE improvement,"[1]; cohort 1, 0.3 mg/g",two of the patients showing improvement within the first week
same,FACT-EGFRI-13 skin-related symptom questionnaire change,"[1]; cohort 1, 0.3 mg/g, 28-day treatment",the three patients had symptomatic improvement
same,benefit after administration had terminated,"[1]; cohort 1, 0.3 mg/g, all three patients, day 55",sustained benefit by day 55
same,acneiform rash CTCAE grade change,"[1]; cohort 1, 0.3 mg/g, three patients with grade 2 at baseline, 28-day treatment",all improved to grade 1
same,central reviewer MASCC grading change,"[1]; cohort 1, 0.3 mg/g, treatment period",two patients improved and one patient did not change
same,"acneiform skin rash, overall",[1]; cohort 2 (1.0 mg/g),evidence of acneiform rash improvement
same,FACT-EGFRI-13 symptom questionnaire change,"[1]; cohort 2, 1.0 mg/g, baseline grade 1 rash",two patients with baseline grade 1 rash reported stable skin-related symptoms
same,FACT-EGFRI-13 symptom questionnaire change,"[1]; cohort 2, 1.0 mg/g, baseline grade 2 rash",two patients with baseline grade 2 rash improved symptoms
same,MASCC grading change,"[1]; cohort 2, 1.0 mg/g, four patients",three patients improved grading during the treatment period while one worsened
same,acneiform rash CTCAE grade change,"[1]; cohort 2, 1.0 mg/g, patients with grade 1 at baseline",two with grade 1 at baseline that did not change in grading
same,acneiform rash CTCAE grade change,"[1]; cohort 2, 1.0 mg/g, patients with grade 2 at baseline, 28-day treatment",two with grade 2 at baseline that improved to grade 1
same,FACT-EGFRI-13 symptom questionnaire change,"[1]; cohort 3, 2.5 mg/g",one patient improved and two worsened
same,acneiform rash CTCAE grade change,"[1]; cohort 3, 2.5 mg/g, three patients, 28-day treatment","one improved, another was stable and one patient had worsening acneiform skin rash"
same,MASCC grading change,"[1]; cohort 3, 2.5 mg/g, compared with the CTCAE course",The same course was evident
same,"acneiform skin rash, overall",[1]; highest dose cohort (2.5 mg/g),no consistent evidence of improvement
same,improvement of acneiform rash in grade 2 patients,[1]; low and intermediate cohorts (0.3 and 1.0 mg/g),all grade 2 patients (six patients)
same,"acneiform skin rash, overall by three assessment criteria",[1]; lowest dose cohort (0.3 mg/g),improved in all patients
same,concentration of peak proliferation,MIA-PaCa-2 cells,0.041 µM
same,proliferation at the highest concentrations,MIA-PaCa-2 cells,growth arrest
same,"increase in pERK, compared with HKGS",[2],higher
same,"effect on pERK inhibition by EGFR inhibitors (erlotinib, cetuximab)",[3]; HKGS plus EGFR inhibitor plus LUT014 0.3 μM,abrogated the inhibitory effect of both EGFR inhibitors
same,plasma concentrations lower than effective systemic concentrations of other BRAF inhibitors,[4],3 to 4 orders of magnitude
same,plasma concentrations,[4]; day 0 and day 7,in the pg/mL range
same,systemic absorption / exposure after topical administration,[4]; day 0 and day 7,negligible absorption and minimal systemic exposure
same,systemic absorption / exposure after topical administration,"[4]; day 0 and day 7, listed as compound of formula IV",negligible to minimal systemic absorption
same,"toxicities associated with oral systemic BRAF inhibitors (photosensitivity, maculo-papular rash, hyperkeratosis)",[5]; all cohorts,no local or systemic toxicities
same,patients with an adverse event considered related to the study drug,"[5]; all cohorts, 10 patients, pruritus, dry skin, stinging sensation",Seven
same,"Treatment-related adverse events: Dry skin, All Grades","[5]; human, in vivo, 4 weeks",1
same,"Treatment-related adverse events: Dry skin, Grade 3 or 4","[5]; human, in vivo, 4 weeks",0
same,"Treatment-related adverse events: Local Pain, All Grades","[5]; human, in vivo, 4 weeks",1
same,"Treatment-related adverse events: Local Pain, Grade 3 or 4","[5]; human, in vivo, 4 weeks",0
same,"Treatment-related adverse events: Pruritus, All Grades","[5]; human, in vivo, 4 weeks",6
same,"Treatment-related adverse events: Pruritus, Grade 3 or 4","[5]; human, in vivo, 4 weeks",0
same,severity grade of related adverse events,"[5]; human, in vivo, 4 weeks",1-2
same,total adverse events of any attribution,"[5]; human, in vivo, 4 weeks",38
same,dose-limiting toxicities,[5]; [6],no dose-limiting toxicities; also recorded: no dose limiting toxicity
same,tolerability,[5]; [6],well tolerated
"C#Cc1cccc(Nc2ncnc3cc(OCCOC)c(OCCOC)cc23)c1 [erlotinib, reference compound]",HKGS stimulation of the MAPK pathway (pERK),[3]; HKGS plus erlotinib 10 μM,partially inhibited
